Assay results: US12545685B2 (Daiichi Sankyo Company, Limited, priority 2011, dated 2026)

Target: T1, Mdm2/p53 binding (GST-Mdm2 / His-p53) (Homo sapiens, UniProt Q00987, L33E)
T1 construct: Mdm2 partial protein having Mdm2 amino acids at positions 25 to 108
Assay: Mdm2/p53 binding assay (HTRF, His-p53 and GST-Mdm2)
Settings: His-p53 (aa 1-132) and GST-Mdm2 (aa 25-108, L33E) 6.25 nM each; 25°C, 1 hour; values given as ranges
Procedure: A protein dilution containing 6.25 nM each of His-p53 (fusion protein of a p53 partial protein having p53 amino acids at positions 1 to 132, with a histidine protein) and GST-Mdm2 (fusion protein of an Mdm2 partial protein having Mdm2 amino acids at positions 25 to 108 with leucine residue 33 substituted by glutamic acid, with glutathione transferase) proteins was prepared using a protein buffer solution (20 mM HEPES pH 7.4, 150 mM NaCl, 0.1% BSA). This protein dilution was added in an amount of 8 μl/well to a 384-well plate (384-well low volume NBC, Corning Inc., catalog No: 3676).
Next, a test compound was diluted with DMSO to produce a protein buffer solution containing 10% dilution, and this buffer solution was added in an amount of 4 μl/well to the plate.
Subsequently, a solution containing an XL665-labeled anti-His antibody (HTRF monoclonal anti-6HIS antibody labeled with XL665 (catalog No: 61HISXLB), Schering/Cisbio Bioassays) and a europium (Eu)-labeled anti-GST antibody (HTRF monoclonal anti-GST antibody labeled with europium cryptate, Schering/Cisbio Bioassays, catalog No: 61GSTKLB) at concentrations of 2.5 μg/ml and 0.325 μg/ml, respectively, was prepared using an antibody diluting buffer solution (20 mM HEPES pH 7.4, 150 mM NaCl, 0.1% BSA, 0.5 M KF). These dilutions were added in an amount of 8 μl/well (total reaction solution volume: 20 μl/well). Then the plate was incubated at 25° ° C. for 1 hour.
Time-resolved fluorescence at 620 and 665 nm was measured at an excitation wavelength of 320 nm using a plate reader (ARVOsx, PerkinElmer Co., Ltd. or PHERAstar, BMG LABTECH). Ratio (R) was calculated using the measured values (RFU 620 nm and RFU 665 nm) according to the following formula: […]
BI: measured value at 665 nm of reaction solution (only each buffer solution) nonsupplemented with each protein, the compound, and the antibodies
A and D: each measured value at 665 nm and 620 nm of reaction solution supplemented with only Eu-labeled anti-GST antibody solution
The R value calculated from the well supplemented with His-p53, GST-Mdm2, the test compound, and each antibody was defined as R (sample). The R value calculated from the well supplemented with His-p53, GST-Mdm2, and each antibody but without the test compound was defined as R (control). The R value calculated from the well supplemented with GST-Mdm2 the test compound, and each antibody but without His-p53 was defined as R (background). T/C was calculated from the formula shown below. An IC50 value for Mdm2/p53 binding was calculated by sigmoid fitting.

T1 sequence (Q00987 25-108 L33E): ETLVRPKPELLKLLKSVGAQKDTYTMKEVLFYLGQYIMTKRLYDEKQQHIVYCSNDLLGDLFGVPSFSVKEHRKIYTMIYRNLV

SMILES | IC50
O=C(N[C@H]1CC[C@H](O)CC1)[C@@H]1NC2(CC(CF)(CF)C2)[C@@]2(C(=O)Nc3cc(Cl)ccc32)[C@H]1c1cccc(Cl)c1F (relative stereo) [Example 121, (3′R, 4′S,5′R)-6″-chloro-4′-(3-chloro-2-fluorophenyl)-3,3-bis(fluoromethyl)-N-(trans-4-hydroxycyclohexyl)-2″-oxo-1″,2″-dihydrodispiro[cyclobutane-1,2′-pyrrolidine-3′,3″-indole]-5′-carboxamide] | 50 to 100 nM
CN(C)C(=O)[C@H]1CC[C@H](NC(=O)[C@@H]2NC3(CC(CF)(CF)C3)[C@@]3(C(=O)Nc4cc(Cl)ccc43)[C@H]2c2cc(F)cc(Cl)c2)CC1 (relative stereo) [Example 168, (3′R, 4′R, 5′R)-6″-chloro-4′-(3-chloro-5-fluorophenyl)-N-[trans-4-(dimethylcarbamoyl)cyclohexyl]-3,3-bis(fluoromethyl)-2″-oxo-1″,2″-dihydrodispiro[cyclobutane-1,2′-pyrrolidine-3′,3″-indole]-5′-carboxamide] | 100 to 500 nM
CC1(C)CCC2(CC1)N[C@@H](C(=O)N[C@H]1CC[C@H](c3nnco3)CC1)[C@H](c1ccnc(Cl)c1F)[C@]21C(=O)Nc2cc(Cl)ncc21 (relative stereo) [Example 190] | 50 to 100 nM
CC1(C)CCC2(CC1)N[C@@H](C(=O)N[C@@H]1CC[C@@H](C(O)CO)OC1)[C@H](c1ccnc(Cl)c1F)[C@]21C(=O)Nc2cc(Cl)ccc21 (single isomer, unassigned) [Example 89] | 1 to 50 nM
CC(O)[C@@H]1CC[C@@H](NC(=O)[C@@H]2NC3(CC(CF)(CF)C3)[C@@]3(C(=O)Nc4cc(Cl)ccc43)[C@H]2c2cccc(Cl)c2F)CO1 (single isomer, unassigned) [Example 146] | 1 to 50 nM
CC(O)[C@@H]1CC[C@@H](NC(=O)[C@@H]2NC3(CC(CF)(CF)C3)[C@@]3(C(=O)Nc4cc(Cl)ccc43)[C@H]2c2cccc(Cl)c2F)CO1 (single isomer, unassigned) [Example 147] | 50 to 100 nM
CC1(C)CCC2(CC1)N[C@@H](C(=O)N[C@@H]1CC[C@@H](C(C)(C)O)OC1)[C@H](c1ccnc(Cl)c1)[C@]21C(=O)Nc2cc(Cl)ccc21 [Example 10, (3′R, 4′R, 5′R)-6″-chloro-4′-(2-chloropyridin-4-yl)-N-[(3R,6S)-6-(1-hydroxy-1-methylethyl)tetrahydro-2H-pyran-3-yl]-4,4-dimethyl-2″-oxo-1″,2″-dihydrodispiro[cyclohexane-1,2′-pyrrolidine-3′,3″-indole]-5′-carboxamide] | 50 to 100 nM
CC1(C)CCC2(CC1)N[C@@H](C(=O)N[C@H]1CC[C@H](O)CC1)[C@H](c1cccc(Cl)c1F)[C@]21C(=O)Nc2cc(C#N)ccc21 [Example 15, (3′R, 4′S,5′R)-4′-(3-chloro-2-fluorophenyl)-6″-cyano-N-(trans-4-hydroxycyclohexyl)-4,4-dimethyl-2″-oxo-1″,2″-dihydrodispiro[cyclohexane-1,2′-pyrrolidine-3′,3″-indole]-5%-carboxamide] | 50 to 100 nM
CC1(C)CCC2(CC1)N[C@@H](C(=O)N[C@@H]1C=C[C@@H](CO)OC1)[C@H](c1cccc(Cl)c1F)[C@]21C(=O)Nc2cc(Cl)ccc21 [Example 19, (3′R,4′S,5′R)-6″-chloro-4′-(3-chloro-2-fluorophenyl)-N-[(3R,6S)-6-(hydroxymethyl)-3,6-dihydro-2H-pyran-3-yl]-4,4-dimethyl-2″-oxo-1″,2″-dihydrodispiro[cyclohexane-1,2′-pyrrolidine-3′,3″-indole]-5′-carboxamide] | 50 to 100 nM
COC(=O)c1cc(Cl)cc([C@H]2[C@H](C(=O)N[C@@H]3CC[C@@H](CO)OC3)NC3(CCC(C)(C)CC3)[C@@]23C(=O)Nc2cc(Cl)ccc23)c1 [Example 22, 1,5-Anhydro-2-[({(3′R, 4′R, 5′R)-6″-chloro-4′-[3-chloro-5-(methoxycarbonyl)phenyl]-4,4-dimethyl-2″-oxo-1″,2″-dihydrodispiro[cyclohexane-1,2′-pyrrolidine-3′,3″-indole]-5′-yl}carbonyl)amino]-2,3,4-trideoxy-D-erythro-hexitol] | 50 to 100 nM
CNC(=O)c1cc(Cl)cc([C@H]2[C@H](C(=O)N[C@@H]3CC[C@@H](CO)OC3)NC3(CCC(C)(C)CC3)[C@@]23C(=O)Nc2cc(Cl)ccc23)c1 [Example 27, 2, 5˜Anhydro-2-[({(3′R, 4′R, 5′R)-6″-chloro-4′-[3-chloro-5-(methylcarbamoyl)phenyl]-4,4-dimethyl-2″-oxo-1″,2″-dihydrodispiro[cyclohexane-1,2′-pyrrolidine-3′,3″-indole]-5′-yl}carbonyl)amino]-2,3,4-trideoxy-D-erythro-hexitol] | 1 to 50 nM
CC1(C)CCC2(CC1)N[C@@H](C(=O)N[C@H]1CC[C@@](O)(CO)CC1)[C@H](c1cccc(Cl)c1F)[C@]21C(=O)Nc2cc(Cl)ccc21 [Example 33, (3′R, 4′S,5′R)-6″-chloro-4′-(3-chloro-2-fluorophenyl)-N-[trans-4-hydroxy-4-(hydroxymethyl)cyclohexyl]-4,4-dimethyl-2″-oxo-1″,2″-dihydrodispiro[cyclohexane-1,2′-pyrrolidine-3′,3″-indole]-5′-carboxamide] | 1 to 50 nM
CC(=O)Nc1cc(Cl)cc([C@H]2[C@H](C(=O)N[C@H]3CC[C@H](O)CC3)NC3(CCC(C)(C)CC3)[C@@]23C(=O)Nc2cc(Cl)ccc23)c1 [Example 37, (3′R, 4′R, S′R)-4′-(3-acetamide-5-chlorophenyl)-6″-chloro-N-(trans-4-hydroxycyclohexyl)-4,4-dimethyl-2″-oxo-1″,2″-dihydrodispiro[cyclohexane-1,2′-pyrrolidine-3′,3″-indole]-5′-carboxamide] | 50 to 100 nM

Other lines, results leading:

IC50 | SMILES
1 to 50 nM | CC1(C)CCC2(CC1)N[C@@H](C(=O)N[C@H]1CC[C@H](N3CC(O)C3)CC1)[C@H](c1cccc(Cl)c1F)[C@]21C(=O)Nc2cc(Cl)ccc21 (relative stereo) [Example 12, (3′R, 4′S,5′R)-6″-chloro-4′-(3-chloro-2-fluorophenyl)-N-[trans-4-(3-hydroxyazetidin-1-yl)cyclohexyl]-4,4-dimethyl-2″-oxo-1″,2″-dihydrodispiro[cyclohexane-1,2′-pyrrolidine-3′,3″-indole]-5′-carboxamide]
1 to 50 nM | CNC(=O)c1cc(Cl)cc([C@H]2[C@H](C(=O)N[C@H]3CC[C@H](O)CC3)NC3(CCC(C)(C)CC3)[C@@]23C(=O)Nc2cc(Cl)ccc23)c1 (relative stereo) [Example 21, (3′R, 4′R, 5′R)-6″-chloro-4′-[3-chloro-5-(methylcarbamoyl)phenyl]-N-(trans-4-hydroxycyclohexyl)-4,4-dimethyl-2″-oxo-1″,2″-dihydrodispiro[cyclohexane-1,2′-pyrrolidine-3′,3″-indole]-5′-carboxamide]
1 to 50 nM | CC1(C)CCC2(CC1)N[C@@H](C(=O)N[C@H]1CC[C@H](O)CC1)[C@H](c1cc(N)cc(Cl)c1)[C@]21C(=O)Nc2cc(Cl)ccc21 (relative stereo) [Example 36, (3′R, 4′R, 5′R)-4′-(3-amino-5-chlorophenyl)-6″-chloro-N-(trans-4-hydroxycyclohexyl)-4,4-dimethyl-2″-oxo-1″,2″-dihydrodispiro[cyclohexane-1,2′-pyrrolidine-3′,3″-indole]-5′-carboxamide]
1 to 50 nM | CC1(C)CCC2(CC1)N[C@@H](C(=O)N[C@H]1CC[C@H](c3noc(=O)[nH]3)CC1)[C@H](c1cccc(Cl)c1F)[C@]21C(=O)Nc2nc(Cl)ccc21 (relative stereo) [Example 49, (3′R, 4′S,5′R)-6″-chloro-4′-(3-chloro-2-fluorophenyl)-4,4-dimethyl-2″-oxo-N-[trans-4-(5-oxo-4,5-dihydro-1,2,4-oxadiazol-3-yl)cyclohexyl]-1″,2″-dihydrodispiro[cyclohexane-1,2′-pyrrolidine-3′,3″-pyrrolo[2,3-b]pyridine]-5′-carboxamide]
1 to 50 nM | CC(O)[C@@H]1CC[C@@H](NC(=O)[C@@H]2NC3(CCC(C)(C)CC3)[C@@]3(C(=O)Nc4nc(Cl)ccc43)[C@H]2c2ccnc(Cl)c2F)CO1 (single isomer, unassigned) [Example 75]
1 to 50 nM | CC1(C)CCC2(CC1)N[C@@H](C(=O)N[C@H]1CO[C@H](CO)C(C)(O)C1)[C@H](c1ccnc(Cl)c1F)[C@]21C(=O)Nc2cc(Cl)ccc21 (single isomer, unassigned) [Example 85]
